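Results reflect a 48-hour exposure of cells in 96-well plates to compound at five concentrations. TGI: total growth inhibition.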
Tests used:
Experiment in all cases: growth of human tumour cells (NCI), 48 h
[1] = system: 786-0 renal
[2] = system: A498 renal
[3] = system: A549 NSCLC
[4] = system: ACHN renal
[5] = system: CAKI-1 renal
[6] = system: CCRF-CEM leukemia
[7] = system: DLD-1 colon
[8] = system: DMS 114 small cell lung
[9] = system: DMS 273 small cell lung
[10] = system: EKVX NSCLC
[11] = system: HCC-2998 colon
[12] = system: HCT-116 colon
[13] = system: HCT-15 colon
[14] = system: HL-60(TB) leukemia
[15] = system: HOP-18 NSCLC
[16] = system: HOP-92 NSCLC
[17] = system: HT29 colon
[18] = system: K-562 leukemia
[19] = system: KM12 colon
[20] = system: KM20L2 colon
[21] = system: LOX IMVI melanoma
[22] = system: LXFL 529 NSCLC
[23] = system: M14 melanoma
[24] = system: M19-MEL melanoma
[25] = system: MALME-3M melanoma
[26] = system: MOLT-4 leukemia
[27] = system: NCI-H226 lung
[28] = system: NCI-H23 lung
[29] = system: NCI-H460 lung
[30] = system: OVCAR-3 ovarian
[31] = system: OVCAR-4 ovarian
[32] = system: OVCAR-5 ovarian
[33] = system: OVCAR-8 ovarian
[34] = system: RPMI-8226 leukemia
[35] = system: RXF 393 renal
[36] = system: RXF-631 renal
[37] = system: SF-295 CNS
[38] = system: SF-539 CNS
[39] = system: SK-MEL-2 melanoma
[40] = system: SK-MEL-28 melanoma
[41] = system: SK-MEL-5 melanoma
[42] = system: SN12C renal
[43] = system: SNB-19 CNS
[44] = system: SNB-75 CNS
[45] = system: SR leukemia
[46] = system: SW-620 colon
[47] = system: TK-10 renal
[48] = system: U251 CNS
[49] = system: UACC-257 melanoma
[50] = system: UACC-62 melanoma
[51] = system: UO-31 renal
[52] = system: XF 498 CNS

Measured: TGI

CC(=O)N(C)C=C1C(=O)N(C)C(=O)N(C)C1=O
> 100 µM: all assays above
